System: MV-4-11 cells
Assay: Gene expression microarray analysis (Affymetrix PrimeView) and GSEA
Format: cell-based, human
Design: RFU PODN (11730768_x_at) / Fold change /veh PODN (11730768_x_at) / RFU LINC00158 (11744669_a_at) / Fold change /veh LINC00158 (11744669_a_at) / RFU DUSP10 (11751237_a_at) / Fold change /veh DUSP10 (11751237_a_at) / RFU ID3 (11757404_x_at) / Fold change /veh ID3 (11757404_x_at) / RFU PLEKHG5 (11737974_s_at) / Fold change /veh PLEKHG5 (11737974_s_at) / RFU LRRC4B (11730491_at) / Fold change /veh LRRC4B (11730491_at) / RFU GIMAP4 (11747438_a_at) / Fold change /veh GIMAP4 (11747438_a_at) / RFU KRT8 (11758183_x_at) / Fold change /veh KRT8 (11758183_x_at) / RFU CNN1 (11734310_a_at) / Fold change /veh CNN1 (11734310_a_at) / RFU VPS37D (11726825_at) / Fold change /veh VPS37D (11726825_at) / RFU C10orf10 (11716522_x_at) / Fold change /veh C10orf10 (11716522_x_at) / RFU KIR2DL2 /// KIR2DL4 /// KIR2DL5A /// KIR2DL5B /// KIR2DS1 /// KIR2DS2 /// KIR2DS3 /// KIR2DS4 /// KIR3DL3 /// KIR3DL3 /// KIR3DS1 (11738374_at) / Fold change /veh KIR2DL2 /// KIR2DL4 /// KIR2DL5A /// KIR2DL5B /// KIR2DS1 /// KIR2DS2 /// KIR2DS3 /// KIR2DS4 /// KIR3DL3 /// KIR3DL3 /// KIR3DS1 (11738374_at) / RFU C1QL1 (11718748_at) / Fold change /veh C1QL1 (11718748_at) / RFU TMPRSS4 (11747572_a_at) / Fold change /veh TMPRSS4 (11747572_a_at) / RFU HAMP (11756126_x_at) / Fold change /veh HAMP (11756126_x_at) / RFU RNFT2 (11725882_a_at) / Fold change /veh RNFT2 (11725882_a_at) / RFU NR4A2 (11747474_a_at) / Fold change /veh NR4A2 (11747474_a_at) / RFU ABCC12 (11746883_a_at) / Fold change /veh ABCC12 (11746883_a_at) / RFU TMEM136 (11760407_x_at) / Fold change /veh TMEM136 (11760407_x_at) / RFU CLDN22 /// WWC2 (11732394_at) / Fold change /veh CLDN22 /// WWC2 (11732394_at) / RFU HLA-DPB1 (11760878_x_at) / Fold change /veh HLA-DPB1 (11760878_x_at) / RFU SPINT1 (11716480_a_at) / Fold change /veh SPINT1 (11716480_a_at) / RFU GAP43 (11754022_s_at) / Fold change /veh GAP43 (11754022_s_at) / RFU A4GNT (11735810_at) / Fold change /veh A4GNT (11735810_at) / RFU PRB3 (11715151_x_at) / Fold change /veh PRB3 (11715151_x_at) / RFU TUBB4B (11761932_at) / Fold change /veh TUBB4B (11761932_at) / RFU CAPN14 (11732068_a_at) / Fold change /veh CAPN14 (11732068_a_at) / RFU TMCC2 (11721928_a_at) / Fold change /veh TMCC2 (11721928_a_at) / RFU IRGQ (11745062_a_at) / Fold change /veh IRGQ (11745062_a_at) / RFU FAM174B (11720279_a_at) / Fold change /veh FAM174B (11720279_a_at) / RFU TMPRSS4 (11748680_a_at) / Fold change /veh TMPRSS4 (11748680_a_at) / RFU FAM212B (11763350_a_at) / Fold change /veh FAM212B (11763350_a_at) / RFU PLEKHG5 (11743358_a_at) / Fold change /veh PLEKHG5 (11743358_a_at) / RFU ZSCAN30 (11745921_a_at) / Fold change /veh ZSCAN30 (11745921_a_at) / RFU CMKLR1 (11741424_a_at) / Fold change /veh CMKLR1 (11741424_a_at) / RFU LOC101060620 /// MAPK8IP1 (11723275_at) / Fold change /veh LOC101060620 /// MAPK8IP1 (11723275_at) / RFU SPTSSB (11747773_x_at) / Fold change /veh SPTSSB (11747773_x_at) / RFU PRSS12 (11739890_at) / Fold change /veh PRSS12 (11739890_at) / RFU BIN1 (11741810_x_at) / Fold change /veh BIN1 (11741810_x_at) / RFU WNT11 (11732464_a_at) / Fold change /veh WNT11 (11732464_a_at) / RFU C10orf10 (11716521_a_at) / Fold change /veh C10orf10 (11716521_a_at) / RFU C5orf56 (11738089_at) / Fold change /veh C5orf56 (11738089_at) / RFU CYB561 (11721691_x_at) / Fold change /veh CYB561 (11721691_x_at) / RFU ANKRD19P (11752326_a_at) / Fold change /veh ANKRD19P (11752326_a_at) / RFU OR2T12 /// OR2T33 /// OR2T8 (11738714_s_at) / Fold change /veh OR2T12 /// OR2T33 /// OR2T8 (11738714_s_at) / RFU VCAN (11748164_a_at) / Fold change /veh VCAN (11748164_a_at) / RFU JSRP1 (11732532_at) / Fold change /veh JSRP1 (11732532_at) / RFU KRTAP10-11 (11738290_x_at) / Fold change /veh KRTAP10-11 (11738290_x_at) / RFU MYO3A (11730013_a_at) / Fold change /veh MYO3A (11730013_a_at) / RFU EBF3 (11725865_a_at) / Fold change /veh EBF3 (11725865_a_at) / RFU CAMK2N1 (11719241_x_at) / Fold change /veh CAMK2N1 (11719241_x_at) / RFU C5orf56 (11738088_a_at) / Fold change /veh C5orf56 (11738088_a_at) / RFU OLFML3 (11715873_a_at) / Fold change /veh OLFML3 (11715873_a_at) / RFU LOC100653217 /// NTM (11731650_a_at) / Fold change /veh LOC100653217 /// NTM (11731650_a_at) / RFU MAPK11 (11762145_a_at) / Fold change /veh MAPK11 (11762145_a_at) / RFU FIZ1 (11724087_x_at) / Fold change /veh FIZ1 (11724087_x_at) / RFU OASL (11726364_x_at) / Fold change /veh OASL (11726364_x_at) / RFU SOX15 (11748057_x_at) / Fold change /veh SOX15 (11748057_x_at) / RFU CD79A (11719716_a_at) / Fold change /veh CD79A (11719716_a_at) / RFU HIST1H1D (11736915_at) / Fold change /veh HIST1H1D (11736915_at) / RFU CASKIN2 (11723855_a_at) / Fold change /veh CASKIN2 (11723855_a_at) / RFU LOC730098 (11760151_x_at) / Fold change /veh LOC730098 (11760151_x_at) / RFU OR4N2 (11742367_at) / Fold change /veh OR4N2 (11742367_at) / RFU PRRT2 (11749266_a_at) / Fold change /veh PRRT2 (11749266_a_at) / RFU SNX32 (11753110_a_at) / Fold change /veh SNX32 (11753110_a_at) / RFU CDHR5 (11726645_a_at) / Fold change /veh CDHR5 (11726645_a_at) / RFU RCAN1 (11760418_a_at) / Fold change /veh RCAN1 (11760418_a_at) / RFU FAM167A (11723789_a_at) / Fold change /veh FAM167A (11723789_a_at) / RFU FAM26E (11764081_at) / Fold change /veh FAM26E (11764081_at) / RFU ISYNA1 (11749810_s_at) / Fold change /veh ISYNA1 (11749810_s_at) / RFU ACY1 (11761880_at) / Fold change /veh ACY1 (11761880_at) / RFU 11764098_at / Fold change /veh 11764098_at / RFU SAMD14 (11745864_x_at) / Fold change /veh SAMD14 (11745864_x_at) / RFU NPB (11741838_a_at) / Fold change /veh NPB (11741838_a_at) / RFU TMPRSS6 (11731388_a_at) / Fold change /veh TMPRSS6 (11731388_a_at) / RFU KRTAP10-2 (11738614_at) / Fold change /veh KRTAP10-2 (11738614_at) / RFU ARHGAP8 /// PRR5-ARHGAP8 (11727945_x_at) / Fold change /veh ARHGAP8 /// PRR5-ARHGAP8 (11727945_x_at) / RFU KRTAP5-7 /// NADSYN1 (11734609_at) / Fold change /veh KRTAP5-7 /// NADSYN1 (11734609_at) / RFU RASL12 (11751679_a_at) / Fold change /veh RASL12 (11751679_a_at) / RFU CDKN2B (11736163_a_at) / Fold change /veh CDKN2B (11736163_a_at) / RFU PRF1 (11729649_at) / Fold change /veh PRF1 (11729649_at) / RFU, ZNF638 /// ZNF638-IT1 / Fold change vs veh, ZNF638 /// ZNF638-IT1 / RFU, PANK3 / Fold change vs veh, PANK3 / RFU, SH3YL1 / Fold change vs veh, SH3YL1 / RFU, ZEB2 / Fold change vs veh, ZEB2 / RFU, NRIP1 / Fold change vs veh, NRIP1 / RFU, PTTG1IP / Fold change vs veh, PTTG1IP / RFU, CAPN2 / Fold change vs veh, CAPN2 / RFU, MED14 / Fold change vs veh, MED14 / RFU, SNORA58 / Fold change vs veh, SNORA58 / RFU, C1orf63 / Fold change vs veh, C1orf63 / RFU, LRRFIP1 / Fold change vs veh, LRRFIP1 / RFU, NDUFAF7 / Fold change vs veh, NDUFAF7 / RFU, SLC12A2 / Fold change vs veh, SLC12A2 / RFU, IBTK / Fold change vs veh, IBTK / RFU, ESF1 / Fold change vs veh, ESF1 / Fold change vs veh, TMEM50B / RFU, TAOK1 / Fold change vs veh, TAOK1 / RFU, ACBD3 / Fold change vs veh, ACBD3 / RFU, TMA16 / Fold change vs veh, TMA16 / RFU, RWDD3 / Fold change vs veh, RWDD3 / RFU, BCAT1 / Fold change vs veh, BCAT1 / RFU, EDEM3 / Fold change vs veh, EDEM3 / RFU, TMEM33 / Fold change vs veh, TMEM33 / RFU, WDR75 / Fold change vs veh, WDR75 / RFU, AHCTF1 / Fold change vs veh, AHCTF1 / RFU, TFRC / Fold change vs veh, TFRC / RFU, ZDHHC17 / Fold change vs veh, ZDHHC17 / RFU, NOM1 / Fold change vs veh, NOM1 / RFU, ARL8B / Fold change vs veh, ARL8B / RFU, ZBTB11 / Fold change vs veh, ZBTB11 / RFU, TAMM41 / Fold change vs veh, TAMM41 / RFU, KIAA1704 /// LOC100996395 / Fold change vs veh, KIAA1704 /// LOC100996395 / RFU, ING1 / Fold change vs veh, ING1 / RFU, TRMT61B / Fold change vs veh, TRMT61B / RFU, FUBP3 / Fold change vs veh, FUBP3 / RFU, TP53 / Fold change vs veh, TP53 / RFU, TNKS2 / Fold change vs veh, TNKS2 / RFU, ZFP14 / Fold change vs veh, ZFP14 / RFU, ACTR2 / Fold change vs veh, ACTR2 / RFU, PPP3R1 / Fold change vs veh, PPP3R1 / RFU, PIK3R1 / Fold change vs veh, PIK3R1 / RFU, HNRNPA1 / Fold change vs veh, HNRNPA1 / RFU, RNF170 / Fold change vs veh, RNF170 / RFU, ZNF28 / Fold change vs veh, ZNF28 / RFU, RNGTT / Fold change vs veh, RNGTT / RFU, OGT / Fold change vs veh, OGT / RFU, BRD1 / Fold change vs veh, BRD1 / RFU, MARS / Fold change vs veh, MARS / RFU, ZNF655 / Fold change vs veh, ZNF655 / RFU, FAHD1 / Fold change vs veh, FAHD1 / RFU, BDP1 / Fold change vs veh, BDP1 / RFU, LRRCC1 / Fold change vs veh, LRRCC1 / RFU, ARID1A / Fold change vs veh, ARID1A / RFU, ZNF146 / Fold change vs veh, ZNF146 / RFU, ZNF330 / Fold change vs veh, ZNF330 / RFU, GPN3 / Fold change vs veh, GPN3 / RFU, C9orf123 / Fold change vs veh, C9orf123 / RFU, N4BP2L2 / Fold change vs veh, N4BP2L2 / RFU, ARFIP1 / Fold change vs veh, ARFIP1 / RFU, FAM179B / Fold change vs veh, FAM179B / RFU, BCL10 / Fold change vs veh, BCL10 / RFU, UHRF1BP1L / Fold change vs veh, UHRF1BP1L / RFU, BET1 / Fold change vs veh, BET1 / RFU, CNOT2 / Fold change vs veh, CNOT2 / RFU, ZNF268 / Fold change vs veh, ZNF268 / Fold change vs veh, ZNF507 / RFU, DGCR2 / Fold change vs veh, DGCR2 / RFU, WDSUB1 / Fold change vs veh, WDSUB1 / Fold change vs veh, HSP90B1 /// MIR3652 / RFU, ADSS / Fold change vs veh, ADSS / RFU, GK / Fold change vs veh, GK / RFU, ZNF148 / Fold change vs veh, ZNF148 / RFU, TAF9 / Fold change vs veh, TAF9 / RFU, SLC1A5 / Fold change vs veh, SLC1A5 / RFU, SLMO2 / Fold change vs veh, SLMO2 / RFU, ABCC4 / Fold change vs veh, ABCC4 / RFU, LOC101060439 /// RAP1B / Fold change vs veh, LOC101060439 /// RAP1B / RFU, RFX7 / Fold change vs veh, RFX7 / RFU, GTPBP10 / Fold change vs veh, GTPBP10 / RFU, CNEP1R1 / Fold change vs veh, CNEP1R1 / RFU, BIVM-ERCC5 /// ERCC5 / Fold change vs veh, BIVM-ERCC5 /// ERCC5 / RFU, ILF3 / Fold change vs veh, ILF3 / RFU 11762660_at / Fold change /veh 11762660_at / RFU VCAN (11757783_s_at) / Fold change /veh VCAN (11757783_s_at) / RFU DDX43 (11728927_at) / Fold change /veh DDX43 (11728927_at) / RFU KRT8 (11758188_x_at) / Fold change /veh KRT8 (11758188_x_at) / RFU NKD1 (11759106_at) / Fold change /veh NKD1 (11759106_at) / RFU SRD5A1 (11742802_a_at) / Fold change /veh SRD5A1 (11742802_a_at) / RFU TPSAB1 /// TPSB2 (11721975_s_at) / Fold change /veh TPSAB1 /// TPSB2 (11721975_s_at) / RFU GSTM3 (11746129_a_at) / Fold change /veh GSTM3 (11746129_a_at) / RFU IL23R (11737362_x_at) / Fold change /veh IL23R (11737362_x_at) / RFU TMEM51 (11727254_a_at) / Fold change /veh TMEM51 (11727254_a_at) / RFU PIWIL2 (11732686_x_at) / Fold change /veh PIWIL2 (11732686_x_at) / RFU ORM1 (11744905_x_at) / Fold change /veh ORM1 (11744905_x_at) / RFU CCDC152 (11743942_at) / Fold change /veh CCDC152 (11743942_at) / RFU ECM1 (11717891_a_at) / Fold change /veh ECM1 (11717891_a_at) / RFU IL23R (11748794_a_at) / Fold change /veh IL23R (11748794_a_at) / RFU TNFAIP8L3 (11732012_x_at) / Fold change /veh TNFAIP8L3 (11732012_x_at) / RFU MBOAT4 (11741988_at) / Fold change /veh MBOAT4 (11741988_at) / RFU 11764193_at / Fold change /veh 11764193_at / RFU TMEM53 (11763286_at) / Fold change /veh TMEM53 (11763286_at) / RFU MAGEB2 (11727129_at) / Fold change /veh MAGEB2 (11727129_at) / RFU TMEM200A (11744735_a_at) / Fold change /veh TMEM200A (11744735_a_at) / RFU CCDC152 (11751479_a_at) / Fold change /veh CCDC152 (11751479_a_at) / RFU FAM211A (11726209_a_at) / Fold change /veh FAM211A (11726209_a_at) / RFU RGS16 (11746705_a_at) / Fold change /veh RGS16 (11746705_a_at) / RFU VCAN (11755009_s_at) / Fold change /veh VCAN (11755009_s_at) / RFU RHOB (11743442_s_at) / Fold change /veh RHOB (11743442_s_at) / RFU RGS16 (11720943_a_at) / Fold change /veh RGS16 (11720943_a_at) / RFU RGS16 (11720944_at) / Fold change /veh RGS16 (11720944_at) / RFU, VPS4B / Fold change vs veh, VPS4B / RFU, CREB1 / Fold change vs veh, CREB1 / RFU, DNAJC13 / Fold change vs veh, DNAJC13 / RFU, GNAQ / Fold change vs veh, GNAQ / RFU, CDK5R1 / Fold change vs veh, CDK5R1 / RFU, ZRANB3 / Fold change vs veh, ZRANB3 / RFU, CUL4A / Fold change vs veh, CUL4A / RFU, CCNY / Fold change vs veh, CCNY / RFU, UFL1 / Fold change vs veh, UFL1 / RFU, COG3 / Fold change vs veh, COG3 / RFU, DIAPH2 / Fold change vs veh, DIAPH2 / RFU, SKA2 / Fold change vs veh, SKA2 / RFU, AFF3 / Fold change vs veh, AFF3 / RFU, LMF1 / Fold change vs veh, LMF1 / RFU, IPO11 / Fold change vs veh, IPO11 / RFU, DFFB / Fold change vs veh, DFFB / RFU, FOXP1 / Fold change vs veh, FOXP1 / RFU, CARD8 / Fold change vs veh, CARD8 / RFU, STRN3 / Fold change vs veh, STRN3 / RFU, ADK / Fold change vs veh, ADK / RFU, RASSF2 / Fold change vs veh, RASSF2 / RFU, WIPF1 / Fold change vs veh, WIPF1 / RFU, LARP1B / Fold change vs veh, LARP1B / RFU, RASA1 / Fold change vs veh, RASA1 / RFU, RB1 / Fold change vs veh, RB1 / RFU, PPFIA1 / Fold change vs veh, PPFIA1 / RFU, MAT2A / Fold change vs veh, MAT2A / RFU, CCT5 / Fold change vs veh, CCT5 / RFU, WDR92 / Fold change vs veh, WDR92 / RFU, CUX1 / Fold change vs veh, CUX1 / RFU, TTC7A / Fold change vs veh, TTC7A / RFU, TMEM135 / Fold change vs veh, TMEM135 / RFU, DEPTOR / Fold change vs veh, DEPTOR / RFU, CPM / Fold change vs veh, CPM / RFU, DNAJB6 / Fold change vs veh, DNAJB6 / RFU, CACNA2D3 / Fold change vs veh, CACNA2D3 / RFU, DTX4 / Fold change vs veh, DTX4 / RFU, TFCP2 / Fold change vs veh, TFCP2 / RFU, GMCL1 /// GMCL1P1 / Fold change vs veh, GMCL1 /// GMCL1P1 / RFU, AEBP2 / Fold change vs veh, AEBP2 / RFU, SNHG1 /// SNORD22 /// SNORD25 /// SNORD26 /// SNORD27 /// SNORD28 /// SNORD29 /// SNORD31 / Fold change vs veh, SNHG1 /// SNORD22 /// SNORD25 /// SNORD26 /// SNORD27 /// SNORD28 /// SNORD29 /// SNORD31 / Fold change (Aza/veh), C12orf56 (ProbeSet 11735607_a_at) / Fold change (ACY-1035/veh), C12orf56 (ProbeSet 11735607_a_at) / Fold change (Aza/veh), FGFR1OP (ProbeSet 11751329_s_at) / Fold change (ACY-1035/veh), FGFR1OP (ProbeSet 11751329_s_at) / Fold change (Aza/veh), VPS36 (ProbeSet 11739960_a_at) / Fold change (ACY-1035/veh), VPS36 (ProbeSet 11739960_a_at) / RFU SYPL1 (11715823_x_at) / Fold change /veh SYPL1 (11715823_x_at) / RFU IGFBP7 (11715501_s_at) / Fold change /veh IGFBP7 (11715501_s_at) / RFU REEP3 (11722064_at) / Fold change /veh REEP3 (11722064_at) / RFU IGLL1 (11728026_x_at) / Fold change /veh IGLL1 (11728026_x_at): dose or concentration left out as unconfirmed
Settings: ProbeSet 11741199_a_at; LIST B

SMILES: Nc1ccc(-c2cccs2)cc1NC(=O)c1ccc2c(c1)cc(C1CC1)n2CCN1CCOCC1 [ACY-1035]
- RFU, LRRCC1: 56.24 RFU

Reference: paper PMC5218480 (PLoS ONE, 2017)
